# According to patent US8673913B2, “SHP-2 phosphatase inhibitor” (Case Western Reserve University, priority 2009, dated 2014):
# pIC50: −log10 of the molar value.
# Tests used:
# [1] = target: T1, GST-LAR PTP domain (PTPRF) (Homo sapiens, UniProt P10586); experiment: in vitro phosphatase assay, LAR; format: biochemical
# T1 construct: GST-LAR PTP domain purchased from Biomol International; purchased Biomol International, L.P. (Plymouth Meeting, Pa.)
# T1 sequence (P10586 1352-1607 limits assumed): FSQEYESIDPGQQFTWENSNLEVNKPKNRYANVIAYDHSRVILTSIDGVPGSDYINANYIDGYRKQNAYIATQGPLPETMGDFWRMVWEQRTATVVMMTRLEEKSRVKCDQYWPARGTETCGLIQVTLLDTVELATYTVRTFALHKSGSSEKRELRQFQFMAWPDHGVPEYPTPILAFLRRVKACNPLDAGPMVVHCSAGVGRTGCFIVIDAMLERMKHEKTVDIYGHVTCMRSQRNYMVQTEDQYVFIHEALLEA
# Description: (§1) Candidate compounds were screened using the in vitro protein tyrosine phosphatase (PTP) assay kit (Sigma, St. Lois, Mo.). […] The assay determines free phosphate generated by dephosphorylation of the PTP substrate using the Malachite Green reagent. Briefly, 0.5 μg of GST-SHP-2 PTP was incubated in 40 μL assay buffer (25 mM Tris-HCl, PH7.4, 50 mM NaCl, 5 mM DTT, and 2.5 mM EDTA) with test compounds at various concentrations or DMSO at room temperature for 30 min. The PTP substrate was then added to a final concentration of 0.2 mM. The system was incubated at 30° C. for 30 min. Finally, 50 μl of Malachite Green solution was added and OD620 was measured after 5 min. In the phosphatase assays for SHP-1, CD45, TC-PTP, PTP-MEG2 (PTPN9), and LAR (PTPRF), procedures were similar, with the exception that GST-SHP-1, GST-CD45 cytoplasmic domain, GST-TC-PTP, GST-PTP-MEG2 PTP domain, and GST-LAR PTP domain purchased from Biomol International, L.P. (Plymouth Meeting, Pa.) were used instead as the enzymes.
# [2] = system: myeloid progenitors, wildtype and SHP-2 E76K; experiment: hematopoietic progenitor cell colony formation assay (CFU-GM); format: cell-based, mouse
# Description: To determine cellular response of myeloid progenitors to IL-3, bone marrow cells (5×10^4 cells/ml) freshly harvested from C57BL6 mice were assayed for colony forming units (CFUs) in 0.9% methylcellulose IMDM medium containing 30% FBS, glutamine (10^−4 M), β-mercaptoethanol (3.3×10^−5 M), and IL-3 (10 ng/ml). After 7 days of culture at 37° C. in a humidified 5% CO2 incubator, hematopoietic cell colonies (primarily CFU-GM) were counted under an inverted microscope.
# FIG. 13 illustrates A). […] Bone marrow cells were harvested from wildtype and mutant mice with SHP-2 E76K mutation. IL-3 induced myeloid progenitor cell colony (CFU-GM) formation assays were performed as described in the Examples in the presence of various concentrations of active compounds. Shown are the results of a representative compound #324. B). Inhibition of growth factor-independent colony formation of myeloid progenitors with SHP-2 activating mutation E76K by active compounds. Bone marrow cells were harvested from wildtype and mutant mice with SHP-2 E76K mutation. The cells were assayed for CFU-GM without cytokines in the presence of various concentrations of active compounds. Shown are the results of a representative compound #324.
# [3] = target: T2, GST-PTP-MEG2 PTP domain (PTPN9) (Homo sapiens, UniProt P43378); experiment: in vitro phosphatase assay, PTP-MEG2; format: biochemical
# T2 construct: GST-PTP-MEG2 PTP domain; purchased Biomol International, L.P. (Plymouth Meeting, Pa.)
# T2 sequence (P43378 303-574 limits assumed): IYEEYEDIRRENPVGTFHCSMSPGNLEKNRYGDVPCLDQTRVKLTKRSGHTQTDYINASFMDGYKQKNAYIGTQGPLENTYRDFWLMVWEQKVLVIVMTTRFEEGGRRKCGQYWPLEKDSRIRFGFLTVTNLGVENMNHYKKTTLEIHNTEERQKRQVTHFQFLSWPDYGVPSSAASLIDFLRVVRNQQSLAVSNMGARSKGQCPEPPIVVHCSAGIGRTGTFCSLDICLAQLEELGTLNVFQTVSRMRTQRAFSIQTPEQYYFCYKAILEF
# Description: as §1
# [4] = target: T3, GST-CD45 cytoplasmic domain (Homo sapiens, UniProt P08575); experiment: in vitro phosphatase assay, CD45; format: biochemical; details: read-out: IC50 PTPRC (CD45)
# T3 construct: GST-CD45 cytoplasmic domain; purchased Biomol International, L.P. (Plymouth Meeting, Pa.)
# T3 sequence (P08575 599-1306 limits assumed): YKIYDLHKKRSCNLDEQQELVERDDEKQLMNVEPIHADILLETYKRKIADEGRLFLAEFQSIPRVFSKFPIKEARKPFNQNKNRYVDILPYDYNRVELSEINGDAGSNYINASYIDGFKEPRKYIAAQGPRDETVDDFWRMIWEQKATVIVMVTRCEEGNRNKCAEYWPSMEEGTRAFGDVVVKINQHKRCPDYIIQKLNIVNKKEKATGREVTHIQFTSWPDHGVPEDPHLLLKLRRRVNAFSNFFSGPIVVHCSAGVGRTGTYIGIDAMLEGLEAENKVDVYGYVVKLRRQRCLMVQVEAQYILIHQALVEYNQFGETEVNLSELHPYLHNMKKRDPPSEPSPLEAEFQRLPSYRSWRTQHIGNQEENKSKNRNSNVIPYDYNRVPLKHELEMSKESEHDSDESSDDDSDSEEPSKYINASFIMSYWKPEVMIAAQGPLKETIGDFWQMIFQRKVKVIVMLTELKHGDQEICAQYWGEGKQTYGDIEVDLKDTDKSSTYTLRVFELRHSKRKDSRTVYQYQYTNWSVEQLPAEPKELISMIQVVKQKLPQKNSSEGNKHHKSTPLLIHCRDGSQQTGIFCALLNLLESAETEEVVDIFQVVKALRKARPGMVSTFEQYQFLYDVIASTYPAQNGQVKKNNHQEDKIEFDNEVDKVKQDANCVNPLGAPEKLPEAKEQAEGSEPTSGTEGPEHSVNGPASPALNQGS
# Description: as §1
# [5] = system: mouse embryonic fibroblasts, wildtype and SHP-2 E76K mutant; experiment: cell proliferation assay, embryonic fibroblasts wildtype and SHP-2 E76K (MTS); format: cell-based; details: 48 hours
# Description: To test the effects of the active compounds on SHP-2-mediated cellular proliferation, Ba/F3, an IL-3 dependent hematopoietic cell line, mouse embryonic fibroblasts (MEFs), and H661 lung cancer cell line with SHP-2 activating mutation N58S were used for the assays. Cells were seeded into 96-well plates (2×10^4 cells/well) in the RPMI-1640 (for Ba/F3 cells) or DMEM (for MEFs and H661 cells) medium supplemented with 10% fetal bovine serum (FBS) and test compounds at various concentrations. For the Ba/F3 cell assay, recombinant mouse IL-3 (1 ng/mL) was included in the culture medium. Two days later, cell number was determined using the MTS cell proliferation kit (Promega Life Science, Madison, Wis.).
# Mouse embryonic fibroblasts, wildtype and SHP-2 E76K mutant, were cultured in DMEM medium supplemented with active compounds at the indicated concentrations. DMSO was included at negative controls. Cell numbers were determined 48 hours later using the MTS assay. Shown are the results of a representative compound #324.
smiles,measurement,setting,value
Cc1cc(C)c2[nH]c3nc(SCC(=O)Nc4cccc5ccccc45)nnc3c2c1 [#324],pIC50,[1],3.84
same,growth factor-independent colony formation of E76K myeloid progenitors,[2]; CFU-GM without cytokines,Inhibition
same,sensitivity of E76K myeloid progenitors versus wild type (IL-3 induced CFU-GM),[2]; IL-3 induced colony formation,more sensitive
same,pIC50,[3],3.75
same,pIC50,[4],3.74
same,sensitivity of E76K fibroblasts versus wild type fibroblasts,[5],more sensitive
